Measurements: patent publication US12404241B2 (Celgene Corporation, priority 2018, dated 2025)
Structures can show the parent of a compound that is named as a salt.

Target: T1, AR (Homo sapiens, UniProt P10275)
T1 construct: endogenous in cells; host or cells: VCaP cells
T1 sequence (P10275 1-920): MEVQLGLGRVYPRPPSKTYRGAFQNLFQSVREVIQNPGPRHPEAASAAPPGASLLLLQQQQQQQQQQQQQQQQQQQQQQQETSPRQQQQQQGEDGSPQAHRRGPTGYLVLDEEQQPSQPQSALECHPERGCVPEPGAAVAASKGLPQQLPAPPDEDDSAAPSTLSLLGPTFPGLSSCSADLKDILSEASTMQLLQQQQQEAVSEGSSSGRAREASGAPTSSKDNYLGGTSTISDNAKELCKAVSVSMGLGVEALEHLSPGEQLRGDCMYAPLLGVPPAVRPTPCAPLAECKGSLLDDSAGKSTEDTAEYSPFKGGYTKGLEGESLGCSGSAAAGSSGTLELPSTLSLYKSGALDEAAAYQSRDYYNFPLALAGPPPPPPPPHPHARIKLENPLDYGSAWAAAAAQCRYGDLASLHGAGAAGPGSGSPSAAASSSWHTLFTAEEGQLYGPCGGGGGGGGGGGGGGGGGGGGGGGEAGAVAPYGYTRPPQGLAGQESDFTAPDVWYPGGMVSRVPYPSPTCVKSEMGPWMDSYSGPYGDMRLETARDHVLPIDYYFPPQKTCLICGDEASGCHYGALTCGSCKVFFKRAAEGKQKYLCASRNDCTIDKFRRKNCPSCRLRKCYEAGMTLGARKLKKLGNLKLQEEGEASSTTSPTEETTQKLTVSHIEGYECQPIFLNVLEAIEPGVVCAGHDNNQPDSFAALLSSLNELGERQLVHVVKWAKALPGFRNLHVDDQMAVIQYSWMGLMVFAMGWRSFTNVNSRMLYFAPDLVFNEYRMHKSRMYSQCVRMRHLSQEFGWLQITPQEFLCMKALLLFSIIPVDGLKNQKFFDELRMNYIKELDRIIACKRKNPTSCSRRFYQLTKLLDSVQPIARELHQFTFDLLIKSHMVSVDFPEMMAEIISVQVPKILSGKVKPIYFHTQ
Experiment: VCAP AR Degradation Assay
Assay type: cell-based
Settings: for Y (AR degradation efficiency, % of DMSO control): class symbols *; for DC50: class symbols A-C, read-out: DC50
In short: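 24 h, 37 °C, VCaP (DMEM/8% FBS), 10-pt 1:3 dilutions from 5 μM final top, 0.1% DMSO ctrl. Lysis on ice/4 °C 1 h; total AR by sandwich ELISA, normalized to DMSO. 4PL fit → DC50, EC50, Y (min AR level).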

| SMILES | Y (AR degradation efficiency, % of DMSO control) | DC50 |
| --- | --- | --- |
| CCc1cc(N2C(=S)N(c3cnc(C#N)c(C(F)(F)F)c3)C(=O)C23CCC3)ccc1OCCN1C[C@H]2CC[C@@H]1CN2CC(=O)Nc1cccc(NC2CCC(=O)NC2=O)c1 (stereo partly drawn) [Example 182, 2-((1R,4R)-5-(2-(4-(7-(6-cyano-5-(trifluoromethyl)pyridin-3-yl)-8-oxo-6-thioxo-5,7-diazaspiro[3.4]octan-5-yl)-2-ethylphenoxy)ethyl)-2,5-diazabicyclo[2.2.2]octan-2-yl)-N-(3-(2,6-dioxopiperidin-3-ylamino)phenyl)acetamide] | ** (25%<Y<=35%) | 0.1 to 0.5 µM |
| CC[C@@H]1CN(CCOc2ccc(N3C(=S)N(c4cnc(C#N)c(C(F)(F)F)c4)C(=O)C34CCC4)cc2C2CC2)CCN1CC(=O)Nc1cccc(NC2CCC(=O)NC2=O)c1 (stereo partly drawn) [Example 262, 2-((R)-4-(2-(4-(7-(6-cyano-5-(trifluoromethyl)pyridin-3-yl)-8-oxo-6-thioxo-5,7-diazaspiro[3.4]octan-5-yl)-2-cyclopropylphenoxy)ethyl)-2-ethylpiperazin-1-yl)-N-(3-(2,6-dioxopiperidin-3-ylamino)phenyl)acetamide] | * (0<Y<=25%) | 0.1 to 0.5 µM |
| CC1(C)C(=O)N(c2ccc(C#N)c(C(F)(F)F)c2)C(=S)N1c1ccc(OCCN2CCN(CC(=O)Nc3cccc(NC4CCC(=O)NC4=O)c3)CC2)c(CCF)c1 (centres unmarked) [Example 160, 2-(4-(2-(4-(3-(4-cyano-3-(trifluoromethyl)phenyl)-5,5-dimethyl-4-oxo-2-thioxoimidazolidin-1-yl)-2-(2-fluoroethyl)phenoxy)ethyl)piperazin-1-yl)-N-(3-(2,6-dioxopiperidin-3-ylamino)phenyl)acetamide] | * (0<Y<=25%) | < 0.1 µM |
| CC1(C)C(=O)N(c2cnc(C#N)c(C(F)(F)F)c2)C(=S)N1c1ccc(OCCN2CCN(CC(=O)Nc3cccc(NC4CCC(=O)NC4=O)c3)CC2)c(Cl)c1 (centres unmarked) [Example 5, hydrochloride] | * (0<Y<=25%) | < 0.1 µM |
| CCc1cc(N2C(=S)N(c3cnc(C#N)c(C(F)(F)F)c3)C(=O)C2(C)C)ccc1OCCN1C[C@@H]2CC[C@H]1CN2CC(=O)Nc1cc(Cl)cc(NC2CCC(=O)NC2=O)c1 (stereo partly drawn) [Example 179, N-(3-chloro-5-(2,6-dioxopiperidin-3-ylamino)phenyl)-2-((1S,4S)-5-(2-(4-(3-(6-cyano-5-(trifluoromethyl)pyridin-3-yl)-5,5-dimethyl-4-oxo-2-thioxoimidazolidin-1-yl)-2-ethylphenoxy)ethyl)-2,5-diazabicyclo[2.2.2]octan-2-yl)acetamide] | ** (25%<Y<=35%) | 0.1 to 0.5 µM |
| C[C@@H]1CN(CCOc2ccc(N3C(=S)N(c4ccc(C#N)c(Cl)c4)C(=O)C3(C)C)cc2C2CC2)C[C@H](C)N1CC(=O)Nc1cc(C#N)cc(NC2CCC(=O)NC2=O)c1 (stereo partly drawn) [Example 219, 2-((2S,6R)-4-(2-(4-(3-(3-chloro-4-cyanophenyl)-5,5-dimethyl-4-oxo-2-thioxoimidazolidin-1-yl)-2-cyclopropylphenoxy)ethyl)-2,6-dimethylpiperazin-1-yl)-N-(3-cyano-5-(2,6-dioxopiperidin-3-ylamino)phenyl)acetamide] | ** (25%<Y<=35%) | < 0.1 µM |
| C[C@@H](C(=O)Nc1cccc(NC2CCC(=O)NC2=O)c1)N1CCN(CCOc2ccc(N3C(=S)N(c4ccc(C#N)c(C(F)(F)F)c4)C(=O)C3(C)C)cc2Cl)CC1 (some centres unmarked) [Example 21, hydrochloride] | * (0<Y<=25%) | < 0.1 µM |
| CCc1cc(N2C(=S)N(c3ccc(C#N)c(C(F)(F)F)c3)C(=O)C2(C)C)ccc1OCCN1CCN(CC(=O)Nc2cc(C#N)cc(NC3CCC(=O)NC3=O)c2)[C@H](C)C1 (stereo partly drawn) [Example 154, 2-((R)-4-(2-(4-(3-(4-cyano-3-(trifluoromethyl)phenyl)-5,5-dimethyl-4-oxo-2-thioxoimidazolidin-1-yl)-2-ethylphenoxy)ethyl)-2-methylpiperazin-1-yl)-N-(3-cyano-5-(2,6-dioxopiperidin-3-ylamino)phenyl)acetamide] | * (0<Y<=25%) | < 0.1 µM |
| CCc1cc(N2C(=S)N(c3ccc(C#N)c(C(F)(F)F)c3)C(=O)C2(C)C)ccc1OCCN1C[C@H](C)N(CC(=O)Nc2cccc(NC3CCC(=O)NC3=O)c2)C[C@@H]1C (stereo partly drawn) [Example 125, 2-((2S,5S)-4-(2-(4-(3-(4-cyano-3-(trifluoromethyl)phenyl)-5,5-dimethyl-4-oxo-2-thioxoimidazolidin-1-yl)-2-ethylphenoxy)ethyl)-2,5-dimethylpiperazin-1-yl)-N-(3-(2,6-dioxopiperidin-3-ylamino)phenyl)acetamide] | * (0<Y<=25%) | 0.1 to 0.5 µM |
| CC(C)c1cc(N2C(=S)N(c3ccc(C#N)c(Cl)c3)C(=O)C2(C)C)ccc1OCCN1C[C@@H](C)N(CC(=O)Nc2cccc(NC3CCC(=O)NC3=O)c2)C[C@H]1C (stereo partly drawn) [Example 207, 2-((2R,5R)-4-(2-(4-(3-(3-chloro-4-cyanophenyl)-5,5-dimethyl-4-oxo-2-thioxoimidazolidin-1-yl)-2-isopropylphenoxy)ethyl)-2,5-dimethylpiperazin-1-yl)-N-(3-(2,6-dioxopiperidin-3-ylamino)phenyl)acetamide] | ** (25%<Y<=35%) | 0.1 to 0.5 µM |
| CCc1cc(N2C(=S)N(c3cnc(C#N)c(C(F)(F)F)c3)C(=O)C2(C)C)ccc1OCCN1CCN(CC(=O)Nc2cccc(N[C@@H]3CCC(=O)NC3=O)c2)[C@H](C)C1 [Example 138, 2-((R)-4-(2-(4-(3-(6-cyano-5-(trifluoromethyl)pyridin-3-yl)-5,5-dimethyl-4-oxo-2-thioxoimidazolidin-1-yl)-2-ethylphenoxy)ethyl)-2-methylpiperazin-1-yl)-N-(3-((R)-2,6-dioxopiperidin-3-ylamino)phenyl)acetamide] | * (0<Y<=25%) | < 0.1 µM |
| CC(C)c1cc(N2C(=S)N(c3ccc(C#N)c(C(F)(F)F)c3)C(=O)C2(C)C)ccc1OCCN1CCN(CC(=O)Nc2cccc(NC3CCC(=O)NC3=O)c2)[C@H](C)C1 (stereo partly drawn) [Example 162, 2-((R)-4-(2-(4-(3-(4-cyano-3-(trifluoromethyl)phenyl)-5,5-dimethyl-4-oxo-2-thioxoimidazolidin-1-yl)-2-isopropylphenoxy)ethyl)-2-methylpiperazin-1-yl)-N-(3-(2,6-dioxopiperidin-3-ylamino)phenyl)acetamide] | ** (25%<Y<=35%) | 0.1 to 0.5 µM |
| CC(F)(F)c1cc(N2C(=S)N(c3ccc(C#N)c(C(F)(F)F)c3)C(=O)C2(C)C)ccc1OCCN1CCN(CC(=O)Nc2cc(Cl)cc(NC3CCC(=O)NC3=O)c2)CC1 (centres unmarked) [Example 157, N-(3-chloro-5-(2,6-dioxopiperidin-3-ylamino)phenyl)-2-(4-(2-(4-(3-(4-cyano-3-(trifluoromethyl)phenyl)-5,5-dimethyl-4-oxo-2-thioxoimidazolidin-1-yl)-2-(1,1-difluoroethyl)phenoxy)ethyl)piperazin-1-yl)acetamide] | * (0<Y<=25%) | < 0.1 µM |
